Assays:
Assay type in all cases: cell-based
IL-17FF = IL-17FF production by PHA-stimulated human PBMC (human IL-17F ELI-Pair); conditions: PHA-stimulated human PBMC, 48 hours; column B; read-out: IC50 (IL-17FF)
Procedure, shortened: (§1)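 Healthy-donor PBMC (1×10^5 cells/well) were activated with 2 μg/ml PHA and cultured with test compounds for 48 hours; cytokines were then quantified in supernatants by the respective immunoassay. Screening used 10, 1, 0.1 and 0.01 μM; IC50 came from semilogarithmic compound titration.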

IFN-γ = IFN-γ production by PHA-stimulated human PBMC (OptEIA human IFN-g ELISA); conditions: PHA-stimulated human PBMC, 48 hours; column C; read-out: IC50 (IFNγ)
Procedure, shortened: as §1

[1] = tested on: PBMC from healthy human donors; test: T cell proliferation assay (PHA-stimulated human PBMC, BrdU ELISA); conditions: PHA-stimulated human PBMC, 48 hours, column D, read-out: IC50 (Tcell proliferation)
Procedure, shortened: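 Proliferation was quantified by BrdU ELISA 48 hours after starting culture of 1×10⁵ human PBMC per well with test compound and 2 μg/ml phytohaemagglutinin. Cells came from healthy donors via Ficoll separation and were kept in RPMI1640 with 10% dialysed heat-inactivated FCS.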

| IC50 (IL-17FF) | IC50 (IFN-γ) | Compound | IC50 [1] |
| --- | --- | --- | --- |
| 1000 to 10000 nM | 1000 to 10000 nM | COCCn1ncc(-c2onc(-c3c(F)cccc3Cl)c2C(=O)OC)c1C(F)(F)F [Example I-102, methyl 3-(2-chloro-6-fluorophenyl)-5-(1-(2-methoxyethyl)-5-(trifluoromethyl)-1H-pyrazol-4-yl)isoxazole-4-carboxylate] | 100 to 1000 nM |
| 100 to 1000 nM | 100 to 1000 nM | COC(=O)c1c(-c2c(F)cccc2Cl)noc1-c1cnn(C2CCS(=O)(=O)C2)c1C(F)(F)F (stereo not drawn) [Example I-103, methyl 3-(2-chloro-6-fluorophenyl)-5-(1-(3-hydrazinyltetrahy-drothiophene 1,1-dioxide)-5-(trifluoromethyl)-1H-pyrazol-4-yl)isoxazole-4-carboxylate] | 100 to 1000 nM |
| 1000 to 10000 nM | 1000 to 10000 nM | COC(=O)c1c(-c2cccc(F)c2)noc1-c1cnn(-c2cccc(F)c2)c1C(F)(F)F [Example I-106, methyl 3-(3-fluorophenyl)-5-(1-(3-fluorophenyl)-5-(trifluoromethyl)-1H-pyrazol-4-yl)isoxazole-4-carboxylate] | 1000 to 10000 nM |
| < 10 nM | < 10 nM | COC(=O)c1c(-c2c(Cl)cccc2Cl)noc1-c1cnn(-c2cccc(F)c2)c1C(F)(F)F [Example I-109, methyl 3-(2,6-dichlorophenyl)-5-(1-(3-fluorophenyl)-5-(trifluoromethyl)-1H-pyrazol-4-yl)isoxazole-4-carboxylate] | < 10 nM |
| 10 to 100 nM | 10 to 100 nM | CNC(=O)c1c(-c2c(Cl)cccc2Cl)noc1-c1cnn(-c2cccc(F)c2)c1C(F)(F)F [Example I-110, 3-(2,6-dichlorophenyl)-5-(1-(3-fluorophenyl)-5-(trifluoromethyl)-1H-pyrazol-4-yl)-N-methylisoxazole-4-carboxamide] | 10 to 100 nM |
| 1000 to 10000 nM | 1000 to 10000 nM | COC(=O)c1c(-c2ccc(Cl)cc2Cl)noc1-c1cnn(-c2cccc(F)c2)c1C(F)(F)F [Example I-111, methyl 3-(2,4-dichlorophenyl)-5-(1-(3-fluorophenyl)-5-(trifluoromethyl)-1H-pyrazol-4-yl)isoxazole-4-carboxylate] | 100 to 1000 nM |
| 100 to 1000 nM | 10 to 100 nM | CCOC(=O)c1c(-c2ccc(Cl)cc2Cl)noc1-c1cnn(-c2cccc(F)c2)c1C(F)(F)F [Example I-112, ethyl 3-(2,4-dichlorophenyl)-5-(1-(3-fluorophenyl)-5-(trifluoromethyl)-1H-pyrazol-4-yl)isoxazole-4-carboxylate] | 100 to 1000 nM |
| 1000 to 10000 nM | 1000 to 10000 nM | COC(=O)c1c(-c2c(F)cccc2Cl)noc1-c1cnn(-c2cccc(Cl)c2)c1 [Example I-115, methyl 3-(2-chloro-6-fluorophenyl)-5-(1-(3-chlorophenyl)-1H-pyrazol-4-yl)isoxazole-4-carboxylate] | 1000 to 10000 nM |
| 100 to 1000 nM | 100 to 1000 nM | Nc1c(-c2c(F)cccc2Cl)noc1-c1cnn(-c2cccc(F)c2)c1C(F)(F)F [Example I-117, 3-(2-chloro-6-fluorophenyl)-5-(1-(3-fluorophenyl)-5-(trifluoromethyl)-1H-pyrazol-4-yl)isoxazol-4-amine] | 100 to 1000 nM |
| 10 to 100 nM | 10 to 100 nM | O=C(c1c(-c2c(F)cccc2Cl)noc1-c1cnn(-c2cccc(F)c2)c1C(F)(F)F)N1CCCO1 [Example I-118, (3-(2-chloro-6-fluorophenyl)-5-(1-(3-fluorophenyl)-5-(trifluoromethyl)-1H-pyrazol-4-yl)isoxazol-4-yl)(isoxazolidin-2-yl)methanone] | 10 to 100 nM |
| 100 to 1000 nM | 100 to 1000 nM | COC(=O)c1c(-c2c(F)cccc2Cl)noc1-c1cnn(-c2cc(C)nc(C)n2)c1C(F)(F)F [Example I-119, methyl 3-(2-chloro-6-fluorophenyl)-5-(1-(2,6-dimethylpyrimidin-4-yl)-5-(trifluoromethyl)-1H-pyrazol-4-yl)isoxazole-4-carboxylate] | 100 to 1000 nM |
| 100 to 1000 nM | 100 to 1000 nM | N#Cc1c(-c2c(F)cccc2Cl)noc1-c1cnn(-c2cccc(F)c2)c1C(F)(F)F [Example I-120, 3-(2-chloro-6-fluorophenyl)-5-(1-(3-fluorophenyl)-5-(trifluoromethyl)-1H-pyrazol-4-yl)isoxazole-4-carbonitrile] | 100 to 1000 nM |
| 1000 to 10000 nM | 1000 to 10000 nM | NC(=O)c1c(-c2c(F)cccc2Cl)noc1-c1cnn(-c2cccc(Cl)c2)c1C(F)(F)F [Example I-121, 3-(2-chloro-6-fluorophenyl)-5-(1-(3-chlorophenyl)-5-(trifluoromethyl)-1H-pyrazol-4-yl)isoxazole-4-carboxamide] | 1000 to 10000 nM |
| 100 to 1000 nM | 100 to 1000 nM | CNC(=S)c1c(-c2c(F)cccc2Cl)noc1-c1cnn(-c2cccc(F)c2)c1C(F)(F)F [Example I-122, 3-(2-chloro-6-fluorophenyl)-5-(1-(3-fluorophenyl)-5-(trifluoromethyl)-1H-pyrazol-4-yl)-N-methylisoxazole-4-carbothioamide] | 100 to 1000 nM |
| 100 to 1000 nM | 100 to 1000 nM | NC(=S)c1c(-c2c(F)cccc2Cl)noc1-c1cnn(-c2cccc(Cl)c2)c1C(F)(F)F [Example I-125, 3-(2-chloro-6-fluorophenyl)-5-(1-(3-chlorophenyl)-5-(trifluoromethyl)-1H-pyrazol-4-yl)isoxazole-4-carbothioamide] | 1000 to 10000 nM |
| 100 to 1000 nM | 100 to 1000 nM | O=C(c1c(-c2c(F)cccc2Cl)noc1-c1cnn(-c2cccc(F)c2)c1C(F)(F)F)N1CCOCC1 [Example I-127, (3-(2-chloro-6-fluorophenyl)-5-(1-(3-fluorophenyl)-5-(trifluoromethyl)-1H-pyrazol-4-yl)isoxazol-4-yl)(morpholino)methanone] | 1000 to 10000 nM |
| < 10 nM | < 10 nM | CSC(=O)c1c(-c2c(F)cccc2Cl)noc1-c1cnn(-c2ccccc2F)c1C(F)(F)F [Example I-130, S-methyl 3-(2-chloro-6-fluorophenyl)-5-(1-(2-fluorophenyl)-5-(trifluoromethyl)-1H-pyrazol-4-yl)isoxazole-4-carbothioate] | < 10 nM |
| 10 to 100 nM | < 10 nM | O=C(c1c(-c2c(F)cccc2Cl)noc1-c1cnn(-c2cccc(Cl)c2)c1C(F)(F)F)N1CCCO1 [Example I-132, (3-(2-chloro-6-fluorophenyl)-5-(1-(3-chlorophenyl)-5-(trifluoromethyl)-1H-pyrazol-4-yl)isoxazol-4-yl)(isoxazolidin-2-yl)methanone] | 10 to 100 nM |
| 1000 to 10000 nM | 1000 to 10000 nM | NNC(=O)c1c(-c2c(F)cccc2Cl)noc1-c1cnn(-c2cccc(F)c2)c1C(F)(F)F [Example I-133, 3-(2-chloro-6-fluorophenyl)-5-(1-(3-fluorophenyl)-5-(trifluoromethyl)-1H-pyrazol-4-yl)isoxazole-4-carbohydrazide] | 1000 to 10000 nM |
| 100 to 1000 nM | 100 to 1000 nM | CON(C)C(=O)c1c(-c2c(F)cccc2Cl)noc1-c1cnn(-c2cccc(F)c2)c1C(F)(F)F [Example I-135, 3-(2-chloro-6-fluorophenyl)-5-(1-(3-fluorophenyl)-5-(trifluoromethyl)-1H-pyrazol-4-yl)-N-methoxy-N-methylisoxazole-4-carboxamide] | 100 to 1000 nM |
| 100 to 1000 nM | 10 to 100 nM | CO/C(=N\c1c(-c2c(F)cccc2Cl)noc1-c1cnn(-c2cccc(F)c2)c1C(F)(F)F)C(F)(F)F [Example I-136, (Z)-methyl N-(3-(2-chloro-6-fluorophenyl)-5-(1-(3-fluorophenyl)-5-(trifluoromethyl)-1H-pyrazol-4-yl)isoxazol-4-yl)-2,2,2-trifluoroacetimidate] | 100 to 1000 nM |
| 100 to 1000 nM | 100 to 1000 nM | Fc1cccc(-n2ncc(-c3onc(-c4c(F)cccc4Cl)c3Br)c2C(F)(F)F)c1 [Example I-137, 4-bromo-3-(2-chloro-6-fluorophenyl)-5-(1-(3-fluorophenyl)-5-(trifluoromethyl)-1H-pyrazol-4-yl)isoxazole] | 10 to 100 nM |
| 100 to 1000 nM | 100 to 1000 nM | COC(=O)Nc1c(-c2c(F)cccc2Cl)noc1-c1cnn(-c2cccc(F)c2)c1C(F)(F)F [Example I-138, methyl 3-(2-chloro-6-fluorophenyl)-5-[1-(3-fluorophenyl)-5-(trifluoromethyl)-1H-pyrazol-4-yl]isoxazol-4-ylcarbamate] | 100 to 1000 nM |
| 1000 to 10000 nM | 1000 to 10000 nM | CC(=O)Nc1c(-c2c(F)cccc2Cl)noc1-c1cnn(-c2cccc(F)c2)c1C(F)(F)F [Example I-139, N-(3-(2-chloro-6-fluorophenyl)-5-(1-(3-fluorophenyl)-5-(trifluoromethyl)-1H-pyrazol-4-yl)isoxazol-4-yl)acetamide] | 1000 to 10000 nM |
| < 10 nM | < 10 nM | Fc1cccc(Cl)c1-c1noc(-c2cnn(-c3cccc(Cl)c3)c2C(F)(F)F)c1Br [Example I-140, 4-bromo-3-(2-chloro-6-fluorophenyl)-5-(1-(3-chlorophenyl)-5-(trifluoromethyl)-1H-pyrazol-4-yl)isoxazole] | 10 to 100 nM |
| 10 to 100 nM | < 10 nM | Fc1cccc(Cl)c1-c1noc(-c2cnn(-c3ccccc3)c2C(F)(F)F)c1Br [Example I-145, 4-bromo-3-(2-chloro-6-fluorophenyl)-5-(1-phenyl-5-(trifluoromethyl)-1H-pyrazol-4-yl)isoxazole] | 10 to 100 nM |

Source: patent US8354436B2 (4SC Discovery GmbH, priority 2011, dated 2013)
